Here are results for one compound from patent publication US6399313B1, “AMPA-binding human GluR2 receptors” (NPS Allelix Corp., priority 1992, dated 2002).

The target of this assay is T1, human GluR2B receptor (Homo sapiens, UniProt P42262).
T1 construct: transported to the cell surface in mature form, lacking the signal peptide and consisting of 862 amino acids; expressed in transfected cells; host or cells: COS-1 (ATCC CRL 1650), transient, plasmid pcDNA1/humGluR2B
As to the kind of experiment: ligand binding assay (NMDA) with membranes of cells producing human GluR2B. The conditions noted are these: method for NMDA not described.

T1 sequence (P42262 25-883): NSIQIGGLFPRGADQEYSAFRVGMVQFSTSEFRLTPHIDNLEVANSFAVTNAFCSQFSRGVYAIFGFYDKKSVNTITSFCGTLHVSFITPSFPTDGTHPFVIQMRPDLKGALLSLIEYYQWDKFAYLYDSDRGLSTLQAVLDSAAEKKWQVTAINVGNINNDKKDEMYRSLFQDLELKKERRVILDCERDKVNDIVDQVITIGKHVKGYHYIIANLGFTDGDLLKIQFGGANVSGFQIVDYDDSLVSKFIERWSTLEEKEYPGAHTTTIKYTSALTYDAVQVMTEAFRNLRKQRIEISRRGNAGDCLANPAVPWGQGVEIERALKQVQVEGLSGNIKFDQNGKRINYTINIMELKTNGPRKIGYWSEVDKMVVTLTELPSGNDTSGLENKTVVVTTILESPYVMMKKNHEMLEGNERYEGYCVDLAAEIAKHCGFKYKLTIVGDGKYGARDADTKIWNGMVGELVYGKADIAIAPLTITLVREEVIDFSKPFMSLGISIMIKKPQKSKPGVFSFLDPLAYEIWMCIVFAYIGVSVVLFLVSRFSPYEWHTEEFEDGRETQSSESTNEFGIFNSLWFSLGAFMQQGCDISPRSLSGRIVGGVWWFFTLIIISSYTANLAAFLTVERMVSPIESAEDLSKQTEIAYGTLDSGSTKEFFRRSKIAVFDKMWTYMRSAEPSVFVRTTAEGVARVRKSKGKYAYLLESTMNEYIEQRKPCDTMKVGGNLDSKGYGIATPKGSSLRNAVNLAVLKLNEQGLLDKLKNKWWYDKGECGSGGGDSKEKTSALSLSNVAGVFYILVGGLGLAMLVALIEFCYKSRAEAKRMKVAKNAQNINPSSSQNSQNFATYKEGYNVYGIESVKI

Regarding `CN[C@H](CC(=O)O)C(=O)O` [NMDA, N-methyl-D-aspartate], the “binding to human GluR2B receptor (in words)” value was “little or no demonstrable binding”.
